From patent publication US20080085893A1, “MATRIX METALLOPROTEASE INHIBITORS” (priority 2006, published 2008)
Several values for one entry are separate records, joined by “and”; a condition that tells them apart may be missing. Equal entries are not always repeated. Where two headings read alike, the source gives them in different places.

Legend:
Type in all cases: biochemical
[1] = biological target: T1, human MMP-9 (amino acids 107-446) (Homo sapiens, UniProt P14780); experiment: MMP dose response assay for determining IC50, MMP-9
T1 construct: human MMP-9 (amino acids 107-446); made in house
T1 sequence (P14780 107-446): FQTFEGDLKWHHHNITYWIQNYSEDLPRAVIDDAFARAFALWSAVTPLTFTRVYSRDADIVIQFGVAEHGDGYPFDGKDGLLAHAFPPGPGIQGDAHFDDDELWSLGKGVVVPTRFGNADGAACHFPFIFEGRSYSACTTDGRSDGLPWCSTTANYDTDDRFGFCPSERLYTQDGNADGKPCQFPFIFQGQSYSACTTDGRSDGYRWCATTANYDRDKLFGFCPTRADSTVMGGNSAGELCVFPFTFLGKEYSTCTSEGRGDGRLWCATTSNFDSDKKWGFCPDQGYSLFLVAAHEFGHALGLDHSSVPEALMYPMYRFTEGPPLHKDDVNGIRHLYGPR
Experimental: (§1) MMP Dose Response Assay for Determining IC50
(§2) The following method was used for determining IC50 values of different inhibitor compounds against multiple MMP enzymes. Frozen stocks of recombinantly produced MMPs were prepared in assay buffer (50 mM HEPES pH 7.4, 10 mM CaCl2, 0.05% Brij-35). […] Enzyme concentrations in the assay were determined empirically and set such that proteolytic activity was maintained in a linear range over the time-course of the experiment. […] Each concentration for each test compound was tested in triplicate. MMP enzymes were equilibrated with compounds for 1 hour at room temperature, then a fluorescent-quench substrate (Acetyl-Cys(Eu)-Pro-Leu-Gly-Leu-Lys-(QSY7)-Ala-Arg-amide) was added to a final concentration of 100 nM. […] Data was analyzed by first calculating average background value from wells that contained only substrate, and this value was subtracted from the entire plate. The 100%, or maximum value, was determined by averaging control wells that contained enzyme, substrate and DMSO. For each well, the percent of control was calculated by dividing the well value by the average DMSO value obtained above.

[2] = biological target: T2, human MMP-1 (amino acids 100-262) (Homo sapiens, UniProt P03956); experiment: MMP dose response assay for determining IC50, MMP-1; details: recombinant catalytic domain, fluorescent-quench substrate 100 nM
T2 construct: human MMP-1 (amino acids 100-262); made in house
T2 sequence (P03956 100-262): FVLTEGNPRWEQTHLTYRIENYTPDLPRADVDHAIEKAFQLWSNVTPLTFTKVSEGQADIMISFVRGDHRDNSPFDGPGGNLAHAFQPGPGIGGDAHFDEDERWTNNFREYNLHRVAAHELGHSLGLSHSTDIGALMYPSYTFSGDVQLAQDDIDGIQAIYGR
Experimental: as §1, §2

[3] = biological target: T3, human MMP-2 (amino acids 1-660) (Homo sapiens, UniProt P08253); experiment: MMP dose response assay for determining IC50, MMP-2; details: recombinant enzyme, fluorescent-quench substrate 100 nM; read-out: MMP-2
T3 construct: human MMP-2 (amino acids 1-660); made in house
T3 sequence (P08253 110-660): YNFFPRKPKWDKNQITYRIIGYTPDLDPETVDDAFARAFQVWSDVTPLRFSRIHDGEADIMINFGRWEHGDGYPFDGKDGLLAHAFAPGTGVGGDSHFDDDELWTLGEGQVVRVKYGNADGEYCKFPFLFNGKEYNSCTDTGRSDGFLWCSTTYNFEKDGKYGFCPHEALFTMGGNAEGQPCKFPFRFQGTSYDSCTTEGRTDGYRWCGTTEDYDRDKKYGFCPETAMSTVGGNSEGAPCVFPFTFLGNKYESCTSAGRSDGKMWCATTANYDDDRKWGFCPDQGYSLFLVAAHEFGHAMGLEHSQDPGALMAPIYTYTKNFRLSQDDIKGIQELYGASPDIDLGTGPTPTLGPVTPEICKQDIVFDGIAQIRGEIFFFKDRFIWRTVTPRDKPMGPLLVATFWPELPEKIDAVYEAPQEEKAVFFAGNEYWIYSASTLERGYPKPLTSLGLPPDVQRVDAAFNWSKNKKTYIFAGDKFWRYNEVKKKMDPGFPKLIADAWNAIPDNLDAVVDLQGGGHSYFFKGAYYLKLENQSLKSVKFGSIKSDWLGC
Experimental: as §1, §2

[4] = recombinant enzyme, fluorescent-quench substrate 100 nM, read-out: MMP-9

IC50 [1, 4] | IC50 [2] | IC50 [3] | Compound | IC50 ([1]; MMP-9 (nM)) [nM]
3.16 nM | > 10000 nM | 14.2 nM | COC[C@H]1CCCN1[C@@H](CN(c1ccc(Oc2ccc(C(F)(F)F)cc2)cc1)S(C)(=O)=O)C(=O)NO [Example 81, N-Hydroxy (2S)-2-[(2R)-2-methoxymethylpyrrolidin-1-yl]-3-{N-[4-(4-trifluoromethylphenoxy)phenyl],N-methanesulfonylamino}propionamide] | –
47.3 nM | > 10000 nM | 56.2 nM | CS(=O)(=O)N(C[C@H](O)C(=O)NO)c1ccc(C#Cc2ccc(Cl)cc2)cc1 [Example 62, N-Hydroxy (2S)-2-hydroxy-3-{N-[4-(4-chlorophenylacetylene)phenyl],N-methanesulfonylamino}propionamide] | –
0.48 nM and 0.86 nM and 2.08 nM and 2.71 nM and 0.35 nM | 8040 nM | 2.69 nM and 4.57 nM and 9.44 nM and 8.32 nM and 3.04 nM | C[C@@H]1CN([C@@H](CN(c2ccc(Oc3ccc(C(F)(F)F)cc3)cc2)S(C)(=O)=O)C(=O)NO)C[C@H](C)O1 [Example 86, N-Hydroxy (2S)-2-(cis-2,6-dimethylmorpholin-4-yl)-3-{N-[4-(4-trifluoromethylphenoxy)phenyl],N-methanesulfonylamino}propionamide] | –
2.56 nM | > 10000 nM | 127 nM | Cc1ccc(Oc2ccc(N(C[C@H](Nc3ccc(F)c(F)c3)C(=O)NO)S(C)(=O)=O)cc2)cc1 [Example 41, N-Hydroxy (2S)-2-(3,4-difluorophenyl)amino-3-{N-[4-(4-methylphenoxy)phenyl],N-methanesulfonylamino}propionamide] | –
17 nM | > 10000 nM | 47.2 nM | CS(=O)(=O)N(C[C@@H](C(=O)NO)N1CCC(c2ccccc2)CC1)c1ccc(Oc2ccc(C(F)(F)F)cc2)cc1 [Example 76, N-Hydroxy (2S)-3-{N-[4-(4-trifluoromethylphenoxy)phenyl],N-methanesulfonylamino}-2-(4-phenylpiperidin-1-yl)propionamide] | –
67.5 nM | > 10000 nM | 281 nM | CC(C)N(Cc1ccccc1)[C@@H](CN(c1ccc(Oc2ccc(C(F)(F)F)cc2)cc1)S(C)(=O)=O)C(=O)NO [Example 69, N-Hydroxy (2S)-2-[N-benzyl-N-(2-propyl)amino]-3-{N-[4-(4-trifluoromethylphenoxy)phenyl],N-methanesulfonylamino}propionamide] | –
2.67 nM | > 10000 nM | 24.3 nM | CC(C)N(CCN1C(=O)N(C)C(C)(C)C1=O)[C@@H](CN(c1ccc(Oc2ccc(C(F)(F)F)cc2)cc1)S(C)(=O)=O)C(=O)NO [Example 80, N-Hydroxy (2S)-2-{N-(2-propyl),N-[2-(1,5,5-trimethylhydantoin-3-yl)ethyl]amino}-3-{N-[4-(4-trifluoromethylphenoxy)phenyl]-N-methanesulfonylamino}propionamide] | –
28.8 nM | > 10000 nM | 262 nM | CC(C)N(CCNC(=O)OCc1ccccc1)[C@@H](CN(c1ccc(Oc2ccc(C(F)(F)F)cc2)cc1)S(C)(=O)=O)C(=O)NO [Example 68] | –
774 nM | > 10000 nM | 103 nM | CS(=O)(=O)N(C[C@H](O)C(=O)NO)c1ccc(C#Cc2cccs2)cc1 [Example 64, N-Hydroxy (2S)-2-hydroxy-3-{N-[4-(4-thiophen-2-ylacetylene)phenyl],N-methanesulfonylamino}propionamide] | –
0.54 nM | 6790 nM | 11.7 nM | Cc1ccc(Oc2ccc(N(C[C@H](N[C@@H](C)c3ccccc3)C(=O)NO)S(C)(=O)=O)cc2)cc1 [Example 47, N-Hydroxy (2S)-3-{N-[4-(4-methylphenoxy)phenyl],N-methanesulfonylamino}-2-[(1S)-1-phenyl-1-ethyl]aminopropionamide] | –

More lines, now with the values behind:

Compound | IC50 [1, 4] | IC50 [2] | IC50 [3] | IC50 ([1]; MMP-9 (nM)) [nM]
CO[C@@H](CN(c1ccc(Oc2ccc(C)cc2)cc1)S(C)(=O)=O)C(=O)NO [Compound 2, N-Hydroxy (2S)-2-methoxy-3-{N-[4-(4-methylphenoxy)phenyl], N-methanesulfonylamino}propionamide] | 4.15 nM | > 10000 nM | 43.6 nM and 28.8 nM | 3.73
Cc1ccc(Oc2ccc(N(C[C@H](NCc3ccccn3)C(=O)NO)S(C)(=O)=O)cc2)cc1 [Example 34, N-Hydroxy (2S)-3-{N-[4-(4-methylphenoxy)phenyl],N-methanesulfonylamino}-2-(pyridin2-yl)methylaminopropionamide] | 22.9 nM | > 10000 nM | 83.4 nM | –
Cc1ccc(Oc2ccc(N(CC(C)(O)C(=O)NO)S(C)(=O)=O)cc2)cc1 (stereo not shown) [Example 6, N-Hydroxy 2-hydroxy-2-methyl-3-{N-[4-(4-methylphenoxy)phenyl],N-methanesulfonylamino}propionamide] | 7.4 nM and 7.76 nM and 7.44 nM and 4.82 nM and 2.17 nM and 3.57 nM | 5570 nM | 19.1 nM and 22.6 nM and 29.7 nM and 16.6 nM and 18.9 nM and 14.5 nM | –
Cc1ccc(Oc2ccc(N(C[C@H](OCc3ccccc3)C(=O)NO)S(C)(=O)=O)cc2)cc1 [Example 23, N-Hydroxy (2S)-2-benzyloxy-3-{N-[4-(4-methylphenoxy)phenyl],N-methanesulfonylamino}propionamide] | 2.6 nM and 9.22 nM | > 10000 nM | 56.2 nM and 90.4 nM | –
Cc1ccc(Oc2ccc(N(C[C@@H](OCc3ccccc3)C(=O)NO)S(C)(=O)=O)cc2)cc1 [Example 22, N-Hydroxy (2R)-2-benzyloxy-3-{N-[4-(4-methylphenoxy)phenyl],N-methanesulfonylamino}propionamide] | 10.8 nM and 41.6 nM | > 10000 nM | 210 nM and 342 nM | –
Cc1ccc(Oc2ccc(N(C[C@H](O)C(=O)NO)S(=O)(=O)Cc3ccncc3)cc2)cc1 [Example 31, N-Hydroxy (2S)-2-hydroxy-3-{N-[4-(4-methylphenoxy)phenyl],N-(pryidin-4-yl)methylsulfonylamino}propionamide] | 54.2 nM | > 10000 nM | 344 nM | –
Cc1ccc(Oc2ccc(N(C[C@H](Nc3cccc(F)c3)C(=O)NO)S(C)(=O)=O)cc2)cc1 [Example 39, N-Hydroxy (2S)-2-(3-fluorophenyl)amino-3-{N-[4-(4-methylphenoxy)phenyl],N-methanesulfonylamino}propionamide] | 0.46 nM and 1.18 nM and 1.68 nM and 0.25 nM | > 10000 nM | 34.7 nM and 50.6 nM and 73.1 nM and 53 nM | –
CS(=O)(=O)N(C[C@@H](O)C(=O)NO)c1ccc(Oc2ccc(Cl)cc2)cc1 [Example 13, N-Hydroxy (2R)-2-hydroxy-3-{N-[4-(4-chlorophenoxy)phenyl],N-methanesulfonylamino}propionamide] | 5.57 nM and 7.16 nM | 9680 nM and 5430 nM | 24.1 nM and 44.9 nM | –
CCCS(=O)(=O)N(C[C@H](O)C(=O)NO)c1ccc(Oc2ccc(C)cc2)cc1 [Example 15, N-Hydroxy (2S)-2-hydroxy-3-{N-[4-(4-methylphenoxy)phenyl],N-(1-propyl)sulfonylamino}propionamide] | 124 nM | > 10000 nM | 509 nM | –
Cc1ccc(Oc2ccc(N(C[C@H](NCc3ccncc3)C(=O)NO)S(C)(=O)=O)cc2)cc1 [Example 33, N-Hydroxy (2S)-3-{N-[4-(4-methylphenoxy)phenyl],N-methanesulfonylamino}-2-(pyridine-4-yl)methylaminopropionamide] | 1.77 nM | > 10000 nM | 9.53 nM | –
Cc1ccc(Oc2ccc(N(C[C@H](NC(C)C)C(=O)NO)S(C)(=O)=O)cc2)cc1 [Example 18, N-Hydroxy (2S)-3-{N-[4-(4-methylphenoxy)phenyl],N-methanesulfonylamino}-2-[(2-propyl)amino]propionamide] | 0.61 nM and 0.75 nM and 0.3 nM and 0.41 nM and 0.45 nM | > 10000 nM and 9560 nM and 4170 nM and 8390 nM and 6950 nM | 3.63 nM and 2.51 nM and 3.25 nM and 5.11 nM and 5.46 nM and 4.21 nM | –
Cc1ccc(Oc2ccc(N(C[C@H](Nc3ccc(F)cc3)C(=O)NO)S(C)(=O)=O)cc2)cc1 [Example 38, N-Hydroxy (2S)-2-(4-fluorophenyl)amino-3-{N-[4-(4-methylphenoxy)phenyl],N-methanesulfonylamino}propionamide] | 1.32 nM | > 10000 nM | 64.4 nM | –
